Measurements published in US20160061816A1, “SCREENING METHOD FOR ION CHANNEL MODULATORS USING MUTATED BKCA CHANNEL” (GWANGJU INSTITUTE OF SCIENCE AND TECHNOLOGY, priority 2013, published 2016).

Tests used:
G733D/N736K BKCa channel [1] = biological target: T1, G733D/N736K BKCa channel (Homo sapiens, UniProt Q12791, G856D/N859K); assay: FluxOR fluorescence-based assay, cells stably expressing G733D/N736K BKCa channel; assay type: cell-based
T1 construct: NO: 4; expressed in transfected cells
Experimental: (§1) Commercially available FluxOR™ Potassium Ion Channel Assay (Invitrogen) was used in order to perform a fluorescence-based assay for BKCa channels. AD-293 cells stably expressing WT and G733D/N736K BKCa channels were plated onto a poly-D-lysine (Sigma)-coated 96-well microplate (Corning) (5×10^4 cells per well). Cells were pre-cultured with a test compound, CTBIC (4-chloro-7-(trifluoromethyl)-10H-benzofuro[3,2-b]indole-1-carboxylic acid) for 30 minutes in advance of the recording. The fluorescence signal was measured using a Synergy™ H1 Hybrid Multi-Mode Microplate Reader (BioTek Instrument, Inc., Winnoski, Vt.) with Gen5 software. […] The microplate was read every 15 seconds in order to identify whether or not the system of the present invention is suitable for high throughput screening using a standard fluorimeter.
(§2) Finally, the present inventors performed experiments to determine whether cells stably expressing hyperactive BKCa channels are suitable for high-throughput screening for channel activators. […] When cells reached 80% to 90% confluence, FluxOR™ signals were measured. Further, the fluorescence signals from parental AD-293 cell lines were measured as a control group. Prior to reading out the fluorescence, the cells were pre-treated with 10 μM CTBIC or DMSO (control group). […] Relative fluorescence unit (RFU) values increased up to 2.3-fold as compared to basal responses.

G733D/N736K BKCa channel [2] = biological target: T1, G733D/N736K BKCa channel; assay: Patch clamp macroscopic current recording, G733D/N736K BKCa channel; assay type: cell-based
Experimental: (§3) Macroscopic current recordings were performed using a gigaohm seal patch clamp method. Patch pipettes were made from borosilicate glass (WPI, Sarasota, Fla.), and then fire polished with resistance of 3-5 MΩ. The channel currents were amplified using Axopatch 200B amplifier (Axon Instruments, Foster City, Calif.), low-pass filtered at 1 or 2 kHz using a four-pole Bessel filter, and then digitized at a rate of 10 or 20 points/ms using a Digidata 1200 A digitizer (Axon Instruments). The ionic currents of BKCa channels were activated by voltage-clamped pulses delivered from a holding potential of −100 mV to membrane potentials ranging from −80 mV to 200 mV in increments of 10 mV. The intracellular and extracellular solutions contained, unless otherwise specified, 116 mM KOH (Sigma), 4 mM KCl (Sigma), 10 mM HEPES and 5 mM EGTA (Sigma), and were titrated to pH 7.2 using MES (2-(N-morpholino)ethanesulfonic acid). In order to precisely measure [Ca^2+]i, the appropriate amount of total […] to be added to the intracellular solution was calculated using MaxChelator software (Patton, et al., 2004; http://maxchelator.stanford.edu/).
In order to evaluate the suitability of cell lines stably expressing G733D/N736K channels as a platform for identification of BKCa channel modulators, the function of a strong BKCa channel activator, CTBIC, which potentiates mutated channel activity, was investigated (Gormemis, et al., 2005; Lee, et al., 2012). […] The relative conductance (G/Gmax) was obtained by normalizing the tail currents (evoked by a step hyperpolarization to −100 mV from a given voltage) to the maximum tail current. The G/Gmax values at 0 μM and 10 μM CTBIC were fitted using a Boltzmann function.

WT BKCa channel [3] = biological target: T2, WT BKCa channel (Homo sapiens, UniProt Q12791); assay: Patch clamp macroscopic current recording, WT BKCa channel; assay type: cell-based
T2 construct: expressed in transfected cells
T2 sequence (Q12791 1-1178 isoform Q12791-5): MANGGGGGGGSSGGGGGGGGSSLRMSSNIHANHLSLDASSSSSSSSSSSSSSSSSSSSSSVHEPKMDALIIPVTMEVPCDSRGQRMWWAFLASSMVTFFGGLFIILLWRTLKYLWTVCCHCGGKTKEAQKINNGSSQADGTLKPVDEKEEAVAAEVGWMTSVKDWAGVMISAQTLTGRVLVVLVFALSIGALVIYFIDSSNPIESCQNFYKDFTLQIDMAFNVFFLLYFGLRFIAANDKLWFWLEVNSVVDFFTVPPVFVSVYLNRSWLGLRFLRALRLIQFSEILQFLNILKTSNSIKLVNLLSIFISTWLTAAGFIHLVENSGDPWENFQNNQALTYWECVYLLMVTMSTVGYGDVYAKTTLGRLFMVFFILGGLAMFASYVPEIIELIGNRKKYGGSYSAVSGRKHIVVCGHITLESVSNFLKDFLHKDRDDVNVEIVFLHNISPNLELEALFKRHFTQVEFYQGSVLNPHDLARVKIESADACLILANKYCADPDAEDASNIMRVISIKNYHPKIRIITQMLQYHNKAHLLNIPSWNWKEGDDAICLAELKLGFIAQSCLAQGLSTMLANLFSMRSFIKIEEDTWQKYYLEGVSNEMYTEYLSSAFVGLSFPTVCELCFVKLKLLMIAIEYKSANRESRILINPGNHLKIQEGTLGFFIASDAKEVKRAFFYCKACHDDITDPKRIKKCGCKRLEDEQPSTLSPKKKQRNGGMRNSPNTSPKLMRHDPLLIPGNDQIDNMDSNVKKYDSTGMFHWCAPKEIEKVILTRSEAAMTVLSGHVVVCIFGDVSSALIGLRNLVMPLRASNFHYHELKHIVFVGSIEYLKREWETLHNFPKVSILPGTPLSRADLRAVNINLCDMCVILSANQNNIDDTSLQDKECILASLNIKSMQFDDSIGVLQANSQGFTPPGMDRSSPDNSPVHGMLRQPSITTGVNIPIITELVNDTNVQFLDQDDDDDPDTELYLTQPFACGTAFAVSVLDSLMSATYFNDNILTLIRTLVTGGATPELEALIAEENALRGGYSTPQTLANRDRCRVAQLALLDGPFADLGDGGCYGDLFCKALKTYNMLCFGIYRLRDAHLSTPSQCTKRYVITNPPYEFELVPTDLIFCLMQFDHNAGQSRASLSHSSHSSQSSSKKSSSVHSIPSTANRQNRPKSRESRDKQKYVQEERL
Experimental: as §3, with “http://maxchelator.stanford.edu/). […]” for “http://maxchelator.stanford.edu/).”

parental AD-293 cells = assay: FluxOR fluorescence-based assay, parental cell line (control); settings: 10 μM CTBIC, FIG. 5a
Experimental: as §1, §2

WT BKCa channel [4] = biological target: T2, WT BKCa channel; assay: FluxOR fluorescence-based assay, cells stably expressing WT BKCa channel; settings: 10 μM CTBIC, stable cell lines expressing WT channel, FIG. 5b
Experimental: as §1, §2

T1 sequence (Q12791 66-1178 isoform Q12791-5 G798D/N801K): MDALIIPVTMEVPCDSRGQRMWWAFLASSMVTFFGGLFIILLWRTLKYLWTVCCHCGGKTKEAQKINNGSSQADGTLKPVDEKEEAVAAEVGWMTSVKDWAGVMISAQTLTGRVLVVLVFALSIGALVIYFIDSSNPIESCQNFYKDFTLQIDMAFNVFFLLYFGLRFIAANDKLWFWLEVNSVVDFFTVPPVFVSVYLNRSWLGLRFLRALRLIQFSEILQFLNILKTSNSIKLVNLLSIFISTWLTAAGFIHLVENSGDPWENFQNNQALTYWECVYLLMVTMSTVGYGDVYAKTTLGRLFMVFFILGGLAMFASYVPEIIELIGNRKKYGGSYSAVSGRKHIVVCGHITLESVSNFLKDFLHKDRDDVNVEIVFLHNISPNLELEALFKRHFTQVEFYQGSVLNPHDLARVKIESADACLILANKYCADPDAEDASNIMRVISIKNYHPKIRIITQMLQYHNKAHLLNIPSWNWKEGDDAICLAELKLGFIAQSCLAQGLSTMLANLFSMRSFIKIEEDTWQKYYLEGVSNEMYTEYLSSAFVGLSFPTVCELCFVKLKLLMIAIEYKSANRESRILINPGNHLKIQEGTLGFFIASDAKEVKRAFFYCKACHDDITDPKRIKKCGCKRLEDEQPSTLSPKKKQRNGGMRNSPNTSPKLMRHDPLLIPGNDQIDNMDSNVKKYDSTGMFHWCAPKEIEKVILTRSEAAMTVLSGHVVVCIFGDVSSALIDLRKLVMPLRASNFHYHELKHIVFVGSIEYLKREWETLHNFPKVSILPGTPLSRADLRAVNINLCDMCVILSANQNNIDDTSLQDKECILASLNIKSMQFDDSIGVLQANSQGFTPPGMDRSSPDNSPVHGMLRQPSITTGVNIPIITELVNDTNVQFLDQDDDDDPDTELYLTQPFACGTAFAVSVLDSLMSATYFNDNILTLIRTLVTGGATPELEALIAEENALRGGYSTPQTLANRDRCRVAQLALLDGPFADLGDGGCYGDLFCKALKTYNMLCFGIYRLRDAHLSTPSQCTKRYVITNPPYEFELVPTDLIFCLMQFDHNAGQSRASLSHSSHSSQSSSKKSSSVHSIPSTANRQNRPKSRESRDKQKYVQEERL

For `O=C(O)c1ccc(Cl)c2c1[nH]c1c3ccc(C(F)(F)F)cc3oc12` [CTBIC, 4-chloro-7-(trifluoromethyl)-10H-benzofuro[3,2-b]indole-1-carboxylic acid], the “Relative fluorescence unit (RFU) increase as compared to basal responses” value (G733D/N736K BKCa channel [1]; 10 μM CTBIC, 30 min pre-treatment, AD-293 cells stably expressing G733D/N736K channel, stimulus buffer 10 mM free K+) was “up to 2.3 fold”, the “increase in fluorescence signals” value (G733D/N736K BKCa channel [1]; stimulus with 10 μM CTBIC, FIG. 5c) was ~2.3 times and the “effect on ionic current” value (G733D/N736K BKCa channel [2]; 10 μM CTBIC added to membrane patch, 100 nM [Ca2+]i, FIG. 4b) was “strongly potentiated”. The “shift of G-V curve” value (G733D/N736K BKCa channel [2]; 10 μM CTBIC, FIG. 4c) was “shifted in the negative direction”, the “shift in V1/2 value (V1/2 free vs. V1/2 10 μM)” value (G733D/N736K BKCa channel [2]; 10 μM CTBIC, compared with WT channel, FIG. 4d) was “much larger than the shift for the WT channel” and the “effect on ionic current” value (WT BKCa channel [3]; 10 μM CTBIC added to membrane patch, 100 nM [Ca2+]i, FIG. 4a) was “strongly potentiated”. The “shift of G-V curve” value (WT BKCa channel [3]; 10 μM CTBIC, FIG. 4c) was “shifted in the negative direction”, the “impact on the induced fluorescence increase” value (parental AD-293 cells) was “minimum impact” and the fluorescence increase (WT BKCa channel [4]) was “about 1.3 fold”.
